Measured values: publication PMC12655457, “Does CytoSorb Interfere with Immunosuppression? A Pharmacokinetic and Functional Evaluation” (Pharmaceutics, 2025)

Assays:
autologous blood cells = test: Cellular uptake of immunosuppressants by autologous blood cells (static setup); assay type: in vitro ADME, human; details: spiked plasma with autologous blood cells 1:1 v/v, n = 3
Procedure: (§1) Plasma was obtained by centrifugation (3500× g, 10 min) from citrate-anticoagulated human whole blood and spiked with immunosuppressants to defined target concentrations (Table 1). To evaluate adsorption, plasma was incubated with the CytoSorb resin at 1:10 (v/v) for 60 min at 37 °C on a roller mixer. In parallel, a separate aliquot of spiked plasma was incubated with autologous blood cells (1:1, v/v) to assess cellular uptake of immunosuppressants. Untreated spiked plasma served as control (Figure 1a). Samples were collected before and after incubation for subsequent analysis.
MPA was determined using a validated test for the Cobas c311 autoanalyzer from Roche (Basel, Switzerland). 6-MP was quantified by reversed-phase HPLC [17, 18]. […] 6-MP was quantified with a retention time of 2.3 min using an UV detector (325 nm). The quantification of cytokines was determined by Magnetic Luminex Assay with a human premixed Multi Analyte Kit (R&D Systems, Minneapolis, MN, USA). The urea, albumin and total protein levels were measured with the cobas c311 automated analyzer with corresponding test kits from Roche (Penzberg, Germany).

[1] = Static CytoSorb adsorption setup (spiked plasma with CytoSorb resin); assay type: in vitro ADME, human; details: plasma:resin 1:10 v/v, 60 min, 37 °C, n = 3
Procedure: as §1
(§2) MPA was determined using a validated test for the Cobas c311 autoanalyzer from Roche (Basel, Switzerland). 6-MP was quantified by reversed-phase HPLC [17, 18]. After precipitation of the plasma sample with ice cold methanol in ratio 1:5, 30 µL of the supernatant was injected into a Nukleosil 100-5C18, 4.6 × 150 mm C18 column (Macherey-Nagel, Düren, Germany), combined with an Onyx Monolithic C18, 4.6 × 5 mm guard column (Phenomenex, Torrance, CA, USA). The mobile phase consisted of methanol and deionised water (50:50) which was continuously pumped with a flow rate of 0.8 mL/min for five minutes. 6-MP was quantified with a retention time of 2.3 min using an UV detector (325 nm). The quantification of cytokines was determined by Magnetic Luminex Assay with a human premixed Multi Analyte Kit (R&D Systems, Minneapolis, MN, USA). The urea, albumin and total protein levels were measured with the cobas c311 automated analyzer with corresponding test kits from Roche (Penzberg, Germany).

[2] = Determination of protein binding by ultrafiltration; assay type: in vitro ADME; details: human plasma, ultrafiltration 30 kDa cutoff; read-out: Protein Binding in Plasma, Current Study (converted)
Procedure: To assess protein binding of the tested immunosuppressants, human plasma was spiked with the respective drugs and urea as a freely diffusible control. Samples were then subjected to ultrafiltration (30 kDa cutoff, 15,000× g, 20 min). The protein-bound fraction was calculated using the following formula:(1) protein binding %= 1−Cfiltrate/Cplasma where cplasma is the concentration of each compound in plasma and cfiltrate is its concentration in the ultrafiltrate.

human whole blood [3] = test: Whole blood cell model: LPS stimulation, cytokine measurement; assay type: cell-based; details: + CytoSorb
Procedure: (§6) Subsequently, the blood was split into two experimental groups: one was treated with CytoSorb in a batch setup, and the other served as an untreated control, incubated under identical conditions at 37 °C on a roller mixer. Following treatment, all samples were allowed to rest for 4 h. After the resting period, blood samples were stimulated with either lipopolysaccharide (LPS) E. coli or with anti-CD3 antibodies. […] The stimulation was carried out for 4 h at 37 °C on a roller mixer. Thereafter, the blood samples were centrifuged, and the plasma was collected and stored at −80 °C. Leukocyte activation was assessed by quantification of IL-1β, IL-6, IL-8, and TNF-α.

[4] = Whole blood cell model: immunosuppressant serum levels after CytoSorb treatment; assay type: in vitro ADME, human; details: overnight incubation, p < 0.05, n = 6
Procedure: To investigate whether the in vitro depletion of immunosuppressants by CytoSorb affects immunosuppression, a whole blood cell model was established. The experiment was conducted over two consecutive days. A graphical overview of the setup is provided in Supplementary Figure S1. On day one, freshly drawn human whole blood was incubated overnight at 37 °C with various immunosuppressants, either individually or in combination, to allow for sufficient drug exposure prior to CytoSorb treatment.
Subsequently, the blood was split into two experimental groups: one was treated with CytoSorb in a batch setup, and the other served as an untreated control, incubated under identical conditions at 37 °C on a roller mixer. Following treatment, all samples were allowed to rest for 4 h. After the resting period, blood samples were stimulated with either lipopolysaccharide (LPS) E. coli or with anti-CD3 antibodies. LPS primarily activates monocytes and neutrophils via the TLR4/CD14/MD2 complex, while anti-CD3 specifically stimulates T cells. The stimulation was carried out for 4 h at 37 °C on a roller mixer. Thereafter, the blood samples were centrifuged, and the plasma was collected and stored at −80 °C. Leukocyte activation was assessed by quantification of IL-1β, IL-6, IL-8, and TNF-α.
as §2

[5] = design: method as in earlier work; details: literature; ref 23 (methylprednisolone), 24 (mycophenolate), 41 (6-mercaptopurine); cited from earlier work
[6] = Dynamic CytoSorb adsorption setup (scaled-down circuit, whole blood); assay type: in vitro ADME, human
Procedure: To quantify the depletion of selected immunosuppressants during CytoSorb treatment under dynamic conditions, a scaled-down extracorporeal circulation system was established, consisting of a 30 mL CytoSorb adsorption cartridge and a pediatric tubing set filled with 400 mL of freshly drawn human whole blood (Figure 1b). To distinguish between drug removal by adsorption versus uptake by blood components, a control circuit with an identical setup but an empty cartridge was run in parallel for each experiment. Whole blood from two healthy donors of the same blood group was pooled, anticoagulated with citrate (final concentration: 7 mM), spiked with the immunosuppressants, and divided into two 400 mL blood bags.
Prior to circulation, the entire system was flushed with isotonic saline. Then, one of the prepared blood bags (Group 1 or Group 2) was connected to the circuit and circulated for 30 min at 37 °C without the adsorber cartridge to allow for equilibration. Following this equilibration, a baseline sample (0 min) was collected, and the adsorption column was introduced into the circuit. In the adsorption circuit, samples were collected at 15, 30, 60, 120, 180 and 240 min. In the control circuit, samples were taken at baseline and after 240 min. All blood samples were centrifuged (3500× g, 10 min) to separate plasma, which was stored at −80 °C until further analysis.
(§3) The clearance (C) of each compound during both the dialysis and the dynamic CytoSorb experiments was calculated using the first-order exponential decay formula:(2) C = V/t ×lnCo/Ct where V = plasma volume, t = treatment time [min], C0 = concentration before starting treatment, Ct = concentration at time t.
as §2

[7] = literature; ref 21 (6-MP), 22 (CsA), 23 (MPR), 24 (MPA), 25 (TAC); cited from earlier work
[8] = Removal of immunosuppressants by acute dialysis (CVVHD, ex vivo, plasma); assay type: in vitro ADME, human
Procedure: (§4) To evaluate the effect of dialysis under clinically relevant conditions, both chronic and acute dialysis settings were simulated using standard Fresenius systems. In all experiments, 1.5 L of citrated human plasma was dialyzed against calcium-free dialysate at 37 °C.
(§5) Prior to circulation, the systems were flushed with 2 L of isotonic saline. Plasma samples were collected at defined time points (15–480 min) and analyzed for immunosuppressants, urea, and albumin. Chronic dialysis represents intermittent high-flow conditions, whereas acute dialysis mimics continuous low-flow therapy used in critically ill patients.
as §3

[9] = Removal of immunosuppressants by chronic dialysis (ex vivo, plasma); assay type: in vitro ADME, human
Procedure: as §4, §5, §3

human whole blood [10] = test: Whole blood cell model: anti-CD3 stimulation, cytokine measurement; assay type: cell-based; details: + Anti-CD3, + CytoSorb
Procedure: as §6

With `Sc1ncnc2nc[nH]c12` [6-MP, 6-mercaptopurine] the “absorbed / reduced by blood cells” value (autologous blood cells) was 36 ± 6%, the “reduction of level in plasma by CytoSorb” value [1] was 33 ± 11% and the fraction unbound [2] was 0.662. The IL-1β serum level (human whole blood [3]; test 1) was 354 pg/mL, the IL-6 serum level (human whole blood [3]; test 1) was 3786 pg/mL and the IL-8 serum level (human whole blood [3]; test 1) was 6337 pg/mL. The TNF-α serum level (human whole blood [3]; test 1) was 2920 pg/mL, the IL-1β serum level (human whole blood [3]; test 2) was 44 pg/mL and the IL-6 serum level (human whole blood [3]; test 2) was 730 pg/mL. It also gave an IL-8 serum level (human whole blood [3]; test 2) of 2253 pg/mL, a TNF-α serum level (human whole blood [3]; test 2) of 1762 pg/mL and an IL-1β serum level (human whole blood [3]; test 3) of 190 pg/mL. It also gave an IL-6 serum level (human whole blood [3]; test 3) of 3799 pg/mL, an IL-8 serum level (human whole blood [3]; test 3) of 7104 pg/mL and a TNF-α serum level (human whole blood [3]; test 3) of 1250 pg/mL. The “reduction in serum level following CytoSorb treatment (in words)” value [4] was “significant reduction”, the “volume of distribution (Vd)” value [5] was “≈ 0.9 L/kg” and the mean clearance rate ([6]; CytoSorb treatment, at 15 min, Equation (2)) was roughly 31 mL/min. The “adsorption (removal) by CytoSorb” value ([6]; dynamic ex vivo circuit, 400 mL human whole blood, 30 mL cartridge, 4 h) was 47 ± 16%, the “Protein Binding in Plasma, Reference” value [7] was 39 [21] % and the “removal by dialysis (in words)” value [8] was “efficiently removed”. For the same compound, the clearance ([8]; after 8 h) was “below 10 mL/min”, the clearance ([8]; highest value reached) was “up to 30 mL/min” and the “removal by dialysis (in words)” value [9] was “efficiently removed”. The clearance ([9]; initial values) was ~ 190 mL/min, the IL-1β serum level (human whole blood [10]; test 1) was 0 pg/mL and the IL-6 serum level (human whole blood [10]; test 1) was 3 pg/mL. The IL-8 serum level (human whole blood [10]; test 1) was 205 pg/mL, the TNF-α serum level (human whole blood [10]; test 1) was 12 pg/mL and the IL-1β serum level (human whole blood [10]; test 2) was 75 pg/mL. It also gave an IL-6 serum level (human whole blood [10]; test 2) of 381 pg/mL, an IL-8 serum level (human whole blood [10]; test 2) of 4175 pg/mL and a TNF-α serum level (human whole blood [10]; test 2) of 46 pg/mL. For the same compound, the IL-1β serum level (human whole blood [10]; test 3) was 70 pg/mL, the IL-6 serum level (human whole blood [10]; test 3) was 30 pg/mL and the IL-8 serum level (human whole blood [10]; test 3) was 686 pg/mL. For the same compound, the TNF-α serum level (human whole blood [10]; test 3) was 41 pg/mL.
